Assay results published in PubChem BioAssay (NCI).
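Each compound was tested at five concentrations against cells in 96-well plates for 48 hours. Abbreviation: GI50, concentration required for 50% inhibition of growth. TGI: concentration producing complete growth inhibition.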

Tests used:
Assay in all cases: NCI-60 cell line screen, 48 h
HOP-92 NSCLC = test system: HOP-92 NSCLC
OVCAR-3 ovarian = test system: OVCAR-3 ovarian
MOLT-4 leukemia = test system: MOLT-4 leukemia
SF-268 CNS = test system: SF-268 CNS
K-562 leukemia = test system: K-562 leukemia
COLO 205 colon = test system: COLO 205 colon
A549 NSCLC = test system: A549 NSCLC
LOX IMVI melanoma = test system: LOX IMVI melanoma
T-47D breast = test system: T-47D breast
SR leukemia = test system: SR leukemia

SMILES | TGI (HOP-92 NSCLC) [µM] | TGI (OVCAR-3 ovarian) [µM] | TGI (MOLT-4 leukemia) [µM] | TGI (SF-268 CNS) [µM] | TGI (K-562 leukemia) [µM] | TGI (COLO 205 colon) [µM] | TGI (A549 NSCLC) [µM] | TGI (LOX IMVI melanoma) [µM] | TGI (T-47D breast) [µM] | GI50 (HOP-92 NSCLC) [nM] | GI50 (OVCAR-3 ovarian) [nM] | GI50 (MOLT-4 leukemia) [nM] | GI50 (SF-268 CNS) [µM] | GI50 (COLO 205 colon) [µM] | GI50 (T-47D breast) [nM] | GI50 (A549 NSCLC) [µM] | GI50 (LOX IMVI melanoma) [µM] | GI50 (K-562 leukemia) [µM] | TGI (SR leukemia) [µM] | GI50 (SR leukemia) [µM]
O=C(CNc1nncs1)NO | > 100 | > 100 | > 100 | > 100 | > 100 | > 100 | > 100 | – | – | – | – | – | – | – | – | – | – | – | – | –
COc1cccc2cc(C)c(C(=O)c3ccccc3)nc12 | – | > 100 | > 100 | > 100 | > 100 | > 100 | > 100 | > 100 | – | – | – | – | – | – | – | – | – | – | – | –
CC(=O)n1c(COS(C)(=O)=O)nc2ccccc21 | > 100 | > 100 | – | > 100 | – | > 100 | > 100 | > 100 | > 100 | – | – | – | – | – | – | – | – | – | – | –
Nn1c(-c2ccccc2)nc2ccc(Br)cc2c1=O | 98 | 81.9 | 50.5 | > 100 | > 100 | > 100 | > 100 | – | – | – | – | – | – | – | – | – | – | – | – | –
C=C1C(=O)O[C@H]2[C@H]1CC/C(Cn1cc(CNC(=O)Cc3cn(C(=O)c4ccc(Cl)cc4)c4ccc(OC)cc34)nn1)=C\CC[C@@]1(C)O[C@@H]21 | 2.65 | 3.19 | 6.16 | 3.52 | – | 4.22 | 29.6 | – | 5.05 | 1210 | 1610 | 2000 | 1.7 | 2.04 | 1730 | 12.7 | – | – | – | –
ClCc1cccc(Cn2cnc3c(Cl)ncnc32)c1 | 6.22 | 3.05 | 37.4 | 15.3 | 15.2 | 10.5 | 39.4 | 5.02 | 12.3 | 2460 | 1630 | 15800 | 3.53 | 3.09 | 3020 | 19.4 | 1.96 | 3.56 | – | –
CC(=O)C1CC(C)=CCC12C(=O)Nc1ccccc12 (stereo not given) | > 100 | > 100 | > 100 | > 100 | > 100 | > 100 | > 100 | > 100 | – | – | – | – | – | – | – | – | – | – | – | –
O=C(O)CSc1n[nH]c(-c2ccc(O)cc2)n1 | > 100 | > 100 | > 100 | > 100 | > 100 | > 100 | > 100 | – | – | – | – | – | – | – | – | – | – | – | > 100 | –
COc1ccc(-c2nc3sc(C)cn3c2/C=C/C(=O)c2cc(OC)c(OC)c(OC)c2)cc1 | – | 5.83 | – | > 100 | > 100 | > 100 | > 100 | > 100 | 8.94 | – | 2340 | – | 3.53 | 4.7 | 2420 | 3.37 | 3.51 | 3.13 | – | –
O=C(O)c1c(-c2cccc3ccccc23)sc(-c2cccc3ccccc23)c1C(=O)O | > 100 | > 100 | 85.7 | > 100 | > 100 | > 100 | > 100 | > 100 | – | – | – | – | – | – | – | – | – | – | > 100 | –
COc1cc(OC)c([C@@H]2OC(=O)C3C2C(=O)O[C@H]3c2cc(OC)c(OC)cc2OC)cc1OC (stereo not given in full) | > 10 | > 100 | > 100 | – | > 100 | > 100 | > 100 | – | – | – | – | – | – | – | – | – | – | – | > 100 | –
CCOC(=O)[C@@]1(C)C=C2O[C@@H]3OC4(CCCCC4)O[C@@H]3C2=C2C(O)=CC=C(O)[C@]21C(=O)OC | 33.8 | > 68 | > 68 | > 68 | > 68 | > 68 | > 68 | > 68 | – | – | – | – | – | – | – | – | – | – | – | –
Cn1c2c(c3ccccc31)CCN(CCCCN1CCc3c(n(C)c4ccccc34)C1=O)C2 | > 100 | > 100 | > 100 | > 100 | > 100 | > 100 | > 100 | – | – | – | – | – | – | – | – | – | – | – | – | –
CNC(P(=O)([O-])[O-])P(=O)([O-])[O-].N.N.[Pt+2] | – | > 100 | – | > 100 | – | > 100 | > 100 | > 100 | – | – | > 100000 | – | > 100 | > 100 | – | > 100 | > 100 | – | – | –
Cc1cc(C)nc(NS(=O)(=O)c2ccc(Nc3c4ccccc4nc4c(C(=O)Nc5ccc(S(=O)(=O)N=C(N)N)cc5)ccc(Cl)c34)cc2)n1 | – | 37.5 | 64.8 | 97.2 | > 100 | > 100 | > 100 | 34.7 | – | – | – | – | – | – | – | – | – | – | 65.4 | –
O=C1C(=O)N(C(=O)c2ccc(Cl)c(Cl)c2)c2ccccc21 | – | > 100 | > 100 | > 100 | > 100 | > 100 | > 100 | > 100 | – | – | – | – | – | – | – | – | – | – | > 100 | –
Cc1cc(-c2ncc(CC(=O)Nc3ccc(-c4cnccn4)cn3)cc2C)ccn1 | 81.8 | > 100 | > 100 | > 100 | > 100 | > 100 | > 100 | > 100 | – | 12000 | 41200 | 23900 | 96 | 42.8 | – | 36.7 | 68.7 | 22.2 | > 100 | 18.4
COc1ccc(Cl)cc1Nc1nc(C(F)(F)F)ccc1C(=O)N/N=C/c1c(Cl)cccc1Cl | 38.4 | 4.32 | 10.7 | > 100 | 32.5 | – | > 100 | > 100 | > 100 | 3460 | 1590 | 2360 | 5.28 | – | 4410 | > 100 | 5.14 | 3.34 | – | –
CC(=O)O/C=C(/C=C/OC(C)=O)C(C/C=C(\C)C#CC=C(C)C)OC(C)=O (stereo not given) | 91.3 | 68.6 | > 100 | > 100 | > 100 | 68.5 | > 100 | 70.7 | – | – | – | – | – | – | – | – | – | – | – | –
COC(=O)N[C@H]1CCc2c(Br)c(OC)c(OC)c(OC)c2-c2ccc(SC)c(=O)cc21 | 5.17 | < 0.01 | 21.7 | 16.6 | 15.9 | – | > 52.6 | 12 | – | < 17.1 | < 10 | < 10 | < 0.01 | – | – | < 0.01 | < 0.01 | < 0.01 | 22.4 | < 0.01
